Where a name gives a salt, the structure may show the parent alone.

The data set can be described thus: Purity of the aerosol versus drug foil temperature (Method 2). It is filed as physicochemical. To be noted: Devices A, 1.0 mg coated. As to the method:
Solutions were analysed by UPLC with water (ammonium formate/formic acid) and acetonitrile as mobile phase using UV detection at 275 nm as acquisition wavelength.
This method is based on the US Pharmacopeia “Sampling the Delivered Dose from Metered-Dose Inhalers” of the “Metered-Dose Inhalers and Dry Powder Inhalers” section.
The mouthpiece of the device to be tested was tightly attached to a mouthpiece adapter connected to an end of a 12 cm sample connection tube which at the other end has attached a filter support cap having a ø 47 mm, 2.2 μm pore size, quartz filter (QM-A, Whatman) which was connected to a pump to create an airflow which triggers the flow sensor and the foil substrate is heated.
The material in the filter and the sample connection tube was extracted with methanol and analysed as in Method 1.
The foil substrates of Devices A were coated with 1.0 mg of apomorphine HCl and tested as in Method 2 at different drug foil temperatures (2 devices per temperature point except 310° C. where 4 devices were used). The devices are triggered at a 30 mL/min airflow.

As to `CN1CCc2cccc3c2[C@H]1Cc1ccc(O)c(O)c1-3` [apomorphine HCl], the TAerosol purity runs as follows: (drug foil 260 °C) 98.4 ± 0.6%; (drug foil 290 °C) 96.4 ± 0.9%; (drug foil 310 °C) 95 ± 1%; (drug foil 320 °C) 90.9 ± 0.8%.
